Measured values published in patent US10543189B2, “2-acetylnaphtho[2,3-b]furan -4,9-dione for use on treating cancer” (Boston Biomedical, Inc., priority 2013, dated 2020).

Assay: Particle size distribution of milled/micronized Compound 1 crystals
Assay type: physicochemical
Details: for Particle Size D50: median size; for Particle Size D90: size for which 90% of particles are equal or smaller
Procedure: For example, Compound 1 crystals were milled (The Retsch Ultra centrifugal Mill ZM 200; Single pass, at 18,000 rpm using 0.25 mm screen) to a median particle size of about 20 micron. Table 3 presents the resultant distribution of particle sizes (Malvern 2000 with the Hydro 2000S wet accessory). The columns present the maximum size of particles in the cumulative percent total presented in the subscript at the header of the column. For example, the column D90 presents the size for which 90% of the particles have an equal or lesser size. The column D50 represents the median size—half of the particles have a greater size, and half of the particles have an equal or lesser size.
For example, Compound 1 crystals were micronized using a jet milling method (4″ Jet Mill, Venturi pressure=40, Mill pressure=100, Feed rate=1304 g/hour) to a median particle size of about 2 micron, as presented in Table 4. Particle size analysis was performed using a dry particle method (Sympatec Helos/KF Particle Size Analyzer).

SMILES | Particle Size D10 [microns] | Particle Size D50 [microns] | Particle Size D90 [microns]
CC(=O)c1cc2c(o1)C(=O)c1ccccc1C2=O [Sample A, 2-acetylnaphtho[2,3-b]furan-4,9-dione] | 0.53 | 2.07 | 4.63
CC(=O)c1cc2c(o1)C(=O)c1ccccc1C2=O [Sample B, 2-acetylnaphtho[2,3-b]furan-4,9-dione] | 2.3 | 20.2 | 48.9
